What was measured:
Assay type in all cases: cell-based
Kurokawa mold = assay: Antimicrobial test of PVC test piece, fungi (growth on agar-covered piece); parameters: key: A: No growth on the test piece.; B: The grown fungi covers less than 30% of the test piece's surface area.; C: The grown fungi covers 30% or more and less than 70% of the test piece's surface area.; D: The grown fungi covers 70% or more of the test piece's surface area; details: soft PVC sheet; ZnPT 0.01 + test compound 0.3 parts per 100 PVC; 35° C., 1 week
Description: (§1) A mixture having the formulation described below was roll kneaded at 170° C. to prepare a sheet, which was pressed at 180° C. for 5 minutes to obtain a 0.5 mm thick soft PVC sheet. A 10 mm×10 mm test piece was cut out of the soft PVC sheet and evaluated for antimicrobial properties against bacteria (Nos. 1 to 5 in Table 1) and fungi (Nos. 6 to 8 in Table 1) in accordance with the respective methods described below.
(§2) The test piece was placed at the center of a culture dish, and a common agar medium was poured to thinly cover the test piece. The culture solution was applied to the agar medium and cultivated at 35° C. for 1 week. The growth of the fungus was observed and rated based on the following criteria.
(§3) A mixture having the formulation shown below was roll kneaded at 170° C. to prepare a sheet, which was pressed at 180° C. for 5 minutes to obtain a 0.5 mm thick semi-rigid PVC sheet. A 10 mm×10 mm test piece was cut out of the semi-rigid PVC sheet. Zinc pyrithione and a test compound were previously compounded to prepare an antimicrobial composition in a predetermined ratio to give the formulation. The test piece was tested in the same manner as in Example 1.

Brewer's yeast = assay: as above; parameters: key: A: No growth on the test piece.; B: The grown fungi covers less than 30% of the test piece's surface area.; C: The grown fungi covers 30% or more and less than 70% of the test piece's surface area.; D: The grown fungi covers 70% or more of the test piece's surface area; details: soft PVC sheet; ZnPT 0.01 + test compound 0.3 parts per 100 PVC; 35° C., 1 week
Description: as §1, §2, §3

Trichophyton = assay: as above; parameters: key: A: No growth on the test piece.; B: The grown fungi covers less than 30% of the test piece's surface area.; C: The grown fungi covers 30% or more and less than 70% of the test piece's surface area.; D: The grown fungi covers 70% or more of the test piece's surface area; details: soft PVC sheet; ZnPT 0.01 + test compound 0.3 parts per 100 PVC; 35° C., 1 week
Description: as §1, §2, §3

Lactobacillus = assay: Antimicrobial test of PVC test piece, bacteria (surviving cells); details: soft PVC sheet; ZnPT 0.01 + test compound 0.3 parts per 100 PVC; 35° C., 2 days
Description: as §1
(§4) The culture solution was applied to the test piece, and the test piece was tightly covered with polyethylene cling film. After cultivation at 35° C. for 2 days, the number of surviving cells was counted and rated based on the following criteria.
as §3

Escherichia coli = assay: as above; details: soft PVC sheet; ZnPT 0.01 + test compound 0.3 parts per 100 PVC; 35° C., 2 days
Description: as §1, §4, §3

Staphylococcus aureaus = assay: as above; details: soft PVC sheet; ZnPT 0.01 + test compound 0.3 parts per 100 PVC; 35° C., 2 days
Description: as §1, §4, §3

Bacillus subtilis = assay: as above; details: soft PVC sheet; ZnPT 0.01 + test compound 0.3 parts per 100 PVC; 35° C., 2 days
Description: as §1, §4, §3

MRSA = assay: as above; details: soft PVC sheet; ZnPT 0.01 + test compound 0.3 parts per 100 PVC; 35° C., 2 days
Description: as §1, §4, §3

Structure (SMILES) | Fungal growth rating, microorganism 8: Kurokawa mold (Kurokawa mold) | Fungal growth rating, microorganism 7: Brewer's yeast (Brewer's yeast) | Fungal growth rating, microorganism 6: Trichophyton (Trichophyton) | Survival rate rating, microorganism 4: Lactobacillus (Lactobacillus) | Survival rate rating, microorganism 5: Escherichia coli (Escherichia coli) | Survival rate rating, microorganism 1: Staphylococcus aureaus (Staphylococcus aureaus) | Survival rate rating, microorganism 3: Bacillus subtilis (Bacillus subtilis) | Survival rate rating, microorganism 2: MRSA (MRSA)
Cc1c(C(C)(C)C)cc(C(C)(C)C)c2c1C(C)c1c(C)c(C(C)(C)C)cc(C(C)(C)C)c1OP(=O)([O-])O2.[Na+] (stereo not drawn) [No. 8] | A | A | A | A (The survival rate is less than 0.1%.) | A (The survival rate is less than 0.1%.) | A (The survival rate is less than 0.1%.) | A (The survival rate is less than 0.1%.) | A (The survival rate is less than 0.1%.)
CC1c2cc(C(C)(C)C)cc(C(C)(C)C)c2OP(=O)([O-])Oc2c1cc(C(C)(C)C)cc2C(C)(C)C.[Na+] (stereo not drawn) [No. 7] | A | A | A | A (The survival rate is less than 0.1%.) | A (The survival rate is less than 0.1%.) | A (The survival rate is less than 0.1%.) | A (The survival rate is less than 0.1%.) | A (The survival rate is less than 0.1%.)
Cc1cc2c(c(C(C)(C)C)c1)OP(=O)([O-])Oc1c(cc(C)cc1C(C)(C)C)C2.[Na+] [No. 6] | A | A | A | A (The survival rate is less than 0.1%.) | A (The survival rate is less than 0.1%.) | A (The survival rate is less than 0.1%.) | A (The survival rate is less than 0.1%.) | A (The survival rate is less than 0.1%.)

From patent publication US20040166163A1, “Antibacterial composition for medical tool” (priority 2001, published 2004)
